Results taken from patent US9976141B2, “Compositions and methods for inhibiting gene expression of Hif2alpha” (Arrowhead Madison Inc., priority 2015, dated 2018).
Strand notation (5' to 3'): a small letter for the sugar, then the base; units joined by * are phosphorothioate-linked, units joined directly phosphodiester-linked; [ ] holds rarer units or linkages, { } end groups; capitals alone tell only the bases. d = 2'-deoxy (DNA); m = 2'-O-methyl; f = 2'-fluoro

How the values were obtained:
[1] = system: human (tumor) Hif2α (EPAS1) mRNA; experiment: Hif2α knockdown in orthotopic RCC tumor bearing mice, single injection of RNAi trigger-delivery polymer conjugate, RT-qPCR (Table 7); format: in vivo; details: single tail vein injection, relative to isotonic glucose
Procedure: A pCR3.1 expression vector expressing the reporter gene secreted alkaline phosphatase (SEAP) under the CMV promoter was prepared by directional cloning of the SEAP coding sequence PCR amplified from Clontech's pSEAP2-basic vector. Convenient restriction sites were added onto primers used to amplify the SEAP coding sequence for cloning into the pCR3.1 vector (Invitrogen). The resultant construct pCR3-SEAP was used to create a SEAP-expressing A498 ccRCC cell line. Briefly, pCR3-SEAP plasmid was transfected into A498 ccRCC cells by electroporation following manufacturer's recommendation. Stable transfectants were selected by G418 resistance. Selected A498-SEAP clones were evaluated for SEAP expression and integration stability.
Female athymic nude mice were anesthetized with ˜3% isoflourane and placed in the right lateral decubitus position. A small, 0.5-1 cm, longitudinally abdominal incision in the left flank was made. Using a moist cotton swab, the left kidney was lifted out of the peritoneum and gently stabilized. Just before injection, a 1.0 ml syringe was filled with the cell/Matrigel mixture and a 27 gauge needle catheter was attached to the syringe tip. The filled syringe was then attached to a syringe pump (Harvard Apparatus, model PHD2000) and primed to remove air. The tip of a 27-gauge needle catheter attached to a syringe was inserted just below the renal capsule near the caudal pole and the tip of the needle was then carefully advanced cranially along the capsule 3-4 mm. A 10 μl aliquot of 2:1 (vol:vol) cell/matrigel mixture containing about 300,000 cells was slowly injected into the kidney parenchyma using a syringe pump. The needle was left in the kidney for 15-20 seconds to ensure the injection was complete. The needle was then removed from the kidney and a cotton swab was placed over the injection site for 30 seconds to prevent leakage of the cells or bleeding. The kidney was then gently placed back into the abdomen and the abdominal wall was closed. Serum was collected every 7-14 days after implantation to monitor tumor growth using a commercial SEAP assay kit. For most studies, tumor mice were used 5-6 weeks after implantation, when tumor measurements were typically around 4-8 mm.
RGD targeted HiF2α-RNAi trigger delivery conjugates. Delivery polymers were modified using RGD-PEG-HyNic, RGD-PEG-ACit-PNP, or RDG-PEG-FCitFP-TFP and PEG-dipeptide modifying agents. The indicated amount of polymer 126 or 100A polymer was modified with 8×PEG12-ACit-PABC-PNP/0.5× aldehyde-PEG24-FCit-PABC-PNP (with RGD mimic #1-PEG-HyNic using protocol #1) and the indicated amount of the indicated Hif2α RNAi trigger. Polymer 064 was modified according to protocol 7. Kidney RCC tumor-bearing mice were generated as described and treated with a single tail vein injection of isotonic glucose (G1) or the indicated Hif2α RNAi trigger-delivery polymer conjugate. Mice were euthanized at the indicated time after injection and total RNA was prepared from kidney tumor using Trizol reagent following manufacturer's recommendation. Relative HiF2α mRNA levels were determined by RT-qPCR as described below and compared to mice treated with delivery buffer (isotonic glucose) only.
In preparation for quantitative PCR, total RNA was isolated from tissue samples homogenized in TriReagent (Molecular Research Center, Cincinnati, Ohio) following the manufacturer's protocol. Approximately 500 ng RNA was reverse-transcribed using the High Capacity cDNA Reverse Transcription Kit (Life Technologies). For human (tumor) Hif2α (EPAS1) expression, pre-manufactured TaqMan gene expression assays for human Hif2α (Catalog #4331182) and CycA (PPIA) Catalog #: 4326316E) were used in biplex reactions in triplicate using TaqMan Gene Expression Master Mix (Life Technologies) or VeriQuest Probe Master Mix (Affymetrix). […]

[2] = system: human EPAS1 (Hif2α) cDNA in psiCHECK2 (Renilla luciferase/EPAS1 fusion mRNA) in Hep3B cells; experiment: Efficacy screen of Hif2α RNAi triggers in vitro, dual-luciferase reporter assay (1 nM and 0.1 nM); format: cell-based; details: Hep3B cells co-transfected with EPAS1-psiCHECK2, Renilla luciferase normalized to firefly luciferase
Procedure, shortened: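 Knockdown read by dual-luciferase assay: Renilla signal from the Renilla/EPAS1 fusion transcript divided by firefly luciferase expressed from the same plasmid. Triggers (modified canonical siRNAs, 1 nM or 0.1 nM) were co-transfected with 25 ng reporter plasmid per well into human hepatocellular carcinoma Hep3B cells.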

[3] = RNAi trigger 150 μg, polymer 100A 300 μg
[4] = RNAi trigger 115 μg, polymer 100A 375 μg

Q: For “AD01033 (antisense TAAGUUAAGCUCCCAUACATT; sense UGUAUGGGAGCUUAACUUAT; Hif2alpha RNAi agent antisense strand; modified_base 2,4,6,8,10,12,14,16,18 /mod_base = “2′-deoxy-2′-fluoro corresponding nucleoside”; modified_base 3,5,9,11,13,15,17,19 /mod_base = “2′-O-methyl corresponding nucleoside”; modified_base 7 /mod_base = “2′-3′ seco corresponding nucleotide”; modified_base 21 /mod_base = “5′-phosphorothioate corresponding nucleotide”; Hif2alpha RNAi agent sense strand; modified_base 1,3,5,7,9,11,13,15,17,19 /mod_base = “2′-deoxy-2′-fluoro corresponding nucleoside”; modified_base 2,4,6,8,10,12,14,16,18 /mod_base = “2′-O-methyl corresponding nucleoside”; modified_b)”, which “Relative Expression day 4 (Hif2α mRNA in kidney tumor)” value ([1]; RNAi trigger 80 μg, polymer 126 400 μg) is on record?
A: 1.08

Q: How did the “Relative Expression day 4 (Hif2α mRNA in kidney tumor)” value [1, 3] turn out when “AD01406 (antisense TUUCAUGAAAUCGUUACGUCGGCUAU; sense UAUAUCGACGUAACGAUUUCAUGAAA; Hif2alpha RNAi agent antisense strand; modified_base 25 modified base = “2′-hydroxy corresponding nucleoside”; modified_base 2,4,6,10,12,14,16,18,20 /mod_base = “2′-deoxy-2′-fluoro corresponding nucleoside”; modified_base 3,5,7,9,11,13,15,17,19,21,22,23,24,26 /mod_base = “2′-O-methyl corresponding nucleoside”; modified_base 8 /mod_base = “2′-3′ seco corresponding nucleotide”; modified_base 2,24 /m; Hif2alpha RNAi agent sense strand; modified_base 2,4 modified base = “2′-hydroxy corresponding nucleoside”; modified_base 6,8,10,12,14,16,18,20,22,24,26 /mod_base = “2′-deoxy-2′-fluoro correspondi)” was run?
A: 0.45

Q: For “AD01289 (antisense TUUCAUGAAAUCGUUACGUTT; sense ACGUAACGAUUUCAUGAAAT; Hif2alpha RNAi agent antisense strand; modified_base 2,4,6,8,10,12,14,16,18 /mod_base = “2′-deoxy-2′-fluoro corresponding nucleoside”; modified_base 3,5,7,9,11,13,15,17,19 /mod_base = “2′-O-methyl corresponding nucleoside”; modified_base 21 /mod_base = “5′-phosphorothioate corresponding nucleotide”; Hif2alpha RNAi agent sense strand; modified_base 1,3,5,6,7,9,11,13,15,17,19 /mod_base = “2′-deoxy-2′-fluoro corresponding nucleoside”; modified_base 2,4,8,10,12,14,16,18 /mod_base = “2′-O-methyl corresponding nucleoside”; modified_base 20 /mod_base = “3′-3′-linked nucleotide”; modified_base 1 /mo)”, which “Relative Expression day 4 (Hif2α mRNA in kidney tumor)” value [1, 4] is on record?
A: 0.28

Q: With “AD01410 (antisense TUUCAUGAAAUCGUUACGUCGGCUAU; sense UAUAUCGACGUAACGAUUUCAUGAAA; Hif2alpha RNAi agent antisense strand; modified_base 25 modified base = “2′-hydroxy corresponding nucleoside”; modified_base 2,4,6,8,10,12,14,16,18,20 /mod_base = “2′-deoxy-2′-fluoro corresponding nucleoside”; modified_base 3,5,7,11,13,15,17,19,21,22,23,24,26 /mod_base = “2′-O-methyl corresponding nucleoside”; modified_base 9 /mod_base = “2′-3′ seco corresponding nucleotide”; modified_base 2,24 /m; Hif2alpha RNAi agent sense strand; modified_base 2,4 modified base = “2′-hydroxy corresponding nucleoside”; modified_base 6,8,10,12,14,16,18,20,22,24,26 /mod_base = “2′-deoxy-2′-fluoro correspondi)” as the substance, how does the “Relative Expression day 4 (Hif2α mRNA in kidney tumor)” value [1, 3] read?
A: 0.41

Q: “AD01555 (antisense TUUCAUGAAAUCGUUACGUTT; sense ACGUAACGAUUUCAUGAAAT; Hif2alpha RNAi agent antisense strand; modified_base 2,4,6,8,10,14,16,18 /mod_base = “2′-deoxy-2′-fluoro corresponding nucleoside”; modified_base 3,5,7,9,11,12,13,15,17,19 /mod_base = “2′-O-methyl corresponding nucleoside”; modified_base 2,3,21 /mod_base = “5′-phosphorothioate corresponding nucleotide”; Hif2alpha RNAi agent sense strand; modified_base 1,3,5,7,8,9,11,13,15,17,19 /mod_base = “2′-deoxy-2′-fluoro corresponding nucleoside”; modified_base 2,4,6,10,12,14,16,18 /mod_base = “2′-O-methyl corresponding nucleoside”; modified_base 20 /mod_base = “3′-3′-linked nucleotide”; modified_base 1)” was tested. Which “Relative Expression day 4 (Hif2α mRNA in kidney tumor)” value [1, 4] did it give?
A: 0.20

Q: For “AD01407 (antisense TUUCAUGAAAUCGUUACGUCGGCUAU; sense UAUAUCGACGUAACGAUUUCAUGAAA; Hif2alpha RNAi agent antisense strand; modified_base 25 modified base = “2′-hydroxy corresponding nucleoside”; modified_base 2,4,6,10,12,14,16,18,20 /mod_base = “2′-deoxy-2′-fluoro corresponding nucleoside”; modified_base 3,5,7,9,11,13,15,17,19,21,22,23,24,26 /mod_base = “2′-O-methyl corresponding nucleoside”; modified_base 8 /mod_base = “2′-3′ seco corresponding nucleotide”; modified_base 2,24 /m; Hif2alpha RNAi agent sense strand; modified_base 2,4 modified base = “2′-hydroxy corresponding nucleoside”; modified_base 6,8,10,12,14,16,18,20,22,24,26 /mod_base = “2′-deoxy-2′-fluoro correspondi)”, which “Relative Expression day 4 (Hif2α mRNA in kidney tumor)” value [1, 3] is on record?
A: 0.47

Q: How did the “Relative Rluc-Hif2α” value ([2]; 0.1 nM RNAi trigger) turn out when “2359 (sense fCmCfGmAfGmCfAmGfUmGfGmAfGmUfCmAfUmUfAdT; antisense dTfAmAfUmGfAmCfUmCfCmAfCmUfGmCfUmCfGmGdT*dT; siRNA) [compound 2359]” was run?
A: 0.576 ± 0.208

Q: And the “Relative Rluc-Hif2α” value ([2]; 1 nM RNAi trigger)?
A: 0.354 ± 0.022

Q: “2244 (sense fGmGfGmAfCmUfUmAfCmAfCmAfGmGfUmGfGmAfAdT; antisense dTfUmCfCmAfCmCfUmGfUmGfUmAfAmGfUmCfCmCdT*dT; siRNA) [compound 2244]” was tested. Which “Relative Rluc-Hif2α” value ([2]; 0.1 nM RNAi trigger) did it give?
A: 0.760 ± 0.050

Q: What about the “Relative Rluc-Hif2α” value ([2]; 1 nM RNAi trigger) of the same substance?
A: 0.915 ± 0.115
